Test results taken from PubChem BioAssay AID1259407 (Chemical Carcinogenesis Research Information System (CCRIS), 2018).
Activity calls are given as the source filed them. How the calls were made is not given here.

Tested on: CCRIS mutagenicity, Ames/micronucleus/aberration tests
Assay: CCRIS mutagenicity studies

## Nc1ccc(-c2ccc(N)cc2)cc1
Test System: AMES SALMONELLA TYPHIMURIUM, Strain/Indicator: TA100, Metabolic Activation: RAT, BLADDER, S-9, PCB, Method: FLUCTUATION TEST
  mutagenic call: active; positive
Test System: AMES SALMONELLA TYPHIMURIUM, Strain/Indicator: TA100, Metabolic Activation: S-9, Method: STANDARD PLATE
  mutagenic call: inactive; negative
Test System: AMES SALMONELLA TYPHIMURIUM, Strain/Indicator: TA100, Metabolic Activation: TOBACCO CELL-FREE TXIMX, Method: PREINCUBATION
  mutagenic call: inactive; negative
Test System: AMES SALMONELLA TYPHIMURIUM, Strain/Indicator: TA1538, Metabolic Activation: GUINEA PIG, LIVER, INTACT HEPATOCYTES, Method: PREINCUBATION
  mutagenic call: active; positive
Test System: AMES SALMONELLA TYPHIMURIUM, Strain/Indicator: TA1538, Metabolic Activation: GUINEA PIG, LIVER, S-9, ACETYL COENZYME A, Method: PREINCUBATION
  mutagenic call: active; positive
Test System: AMES SALMONELLA TYPHIMURIUM, Strain/Indicator: TA1538, Metabolic Activation: GUINEA PIG, LIVER, S-9, Method: PREINCUBATION
  mutagenic call: active; positive
Test System: AMES SALMONELLA TYPHIMURIUM, Strain/Indicator: TA1538, Metabolic Activation: HAMSTER, LIVER, INTACT HEPATOCYTES, Method: PREINCUBATION
  mutagenic call: active; positive
Test System: AMES SALMONELLA TYPHIMURIUM, Strain/Indicator: TA1538, Metabolic Activation: HAMSTER, LIVER, S-9, ACETYL COENZYME A, Method: PREINCUBATION
  mutagenic call: active; positive
Test System: AMES SALMONELLA TYPHIMURIUM, Strain/Indicator: TA1538, Metabolic Activation: HAMSTER, LIVER, S-9, Method: PREINCUBATION
  mutagenic call: active; positive
Test System: AMES SALMONELLA TYPHIMURIUM, Strain/Indicator: TA1538, Metabolic Activation: HAMSTER, LIVER, S-9, Method: STANDARD PLATE
  mutagenic call: active; positive
Test System: AMES SALMONELLA TYPHIMURIUM, Strain/Indicator: TA1538, Metabolic Activation: RAT, LIVER, INTACT HEPATOCYTES, Method: PREINCUBATION
  mutagenic call: active; positive
Test System: AMES SALMONELLA TYPHIMURIUM, Strain/Indicator: TA1538, Metabolic Activation: RAT, LIVER, S-9, ACETYL COENZYME A, Method: PREINCUBATION
  mutagenic call: active; positive
Test System: AMES SALMONELLA TYPHIMURIUM, Strain/Indicator: TA1538, Metabolic Activation: RAT, LIVER, S-9, AROCLOR 1254, Method: STANDARD PLATE
  mutagenic call: active; positive
Test System: AMES SALMONELLA TYPHIMURIUM, Strain/Indicator: TA1538, Metabolic Activation: RAT, LIVER, S-9, PHENOBARBITAL, Method: STANDARD PLATE
  mutagenic call: active; positive
Test System: AMES SALMONELLA TYPHIMURIUM, Strain/Indicator: TA1538, Metabolic Activation: RAT, LIVER, S-9, Method: PREINCUBATION
  mutagenic call: active; positive
Test System: AMES SALMONELLA TYPHIMURIUM, Strain/Indicator: YG1021, Metabolic Activation: TOBACCO CELL-FREE TXIMX, Method: PREINCUBATION
  mutagenic call: active; positive
Test System: AMES SALMONELLA TYPHIMURIUM, Strain/Indicator: YG1021, Metabolic Activation: TOBACCO TX1 CELLS, Method: PREINCUBATION
  mutagenic call: active; positive
Test System: AMES SALMONELLA TYPHIMURIUM, Strain/Indicator: YG1024, Metabolic Activation: HUMAN, HEPATOMA CELLS, BENZO[A]ANTHRACENE, Method: PREINCUBATION
  mutagenic call: active; positive
Test System: AMES SALMONELLA TYPHIMURIUM, Strain/Indicator: YG1024, Metabolic Activation: HUMAN, HEPATOMA CELLS, Method: PREINCUBATION
  mutagenic call: active; positive
Test System: AMES SALMONELLA TYPHIMURIUM, Strain/Indicator: YG1024, Metabolic Activation: PLANT CELLS, Method: PREINCUBATION
  mutagenic call: active; positive
Test System: AMES SALMONELLA TYPHIMURIUM, Strain/Indicator: YG1024, Metabolic Activation: RAT, LIVER, S-9, AROCLOR 1254, Method: PREINCUBATION
  mutagenic call: active; positive
Test System: AMES SALMONELLA TYPHIMURIUM, Strain/Indicator: YG1024, Metabolic Activation: RAT, LIVER, S-9, Method: PREINCUBATION
  mutagenic call: active; positive
Test System: AMES SALMONELLA TYPHIMURIUM, Strain/Indicator: YG1024, Metabolic Activation: TOBACCO CELL-FREE EXTRACT, Method: PREINCUBATION
  mutagenic call: active; positive
Test System: AMES SALMONELLA TYPHIMURIUM, Strain/Indicator: YG1024, Metabolic Activation: TOBACCO CELL-FREE TXIMX, Method: PREINCUBATION
  mutagenic call: active; positive
Test System: AMES SALMONELLA TYPHIMURIUM, Strain/Indicator: YG1024, Metabolic Activation: TOBACCO TX1 CELLS, Method: PREINCUBATION
  mutagenic call: active; positive
Test System: AMES SALMONELLA TYPHIMURIUM, Strain/Indicator: YG1026, Metabolic Activation: TOBACCO CELL-FREE TXIMX, Method: PREINCUBATION
  mutagenic call: inactive; negative
Test System: AMES SALMONELLA TYPHIMURIUM, Strain/Indicator: YG1026, Metabolic Activation: TOBACCO TX1 CELLS, Method: PREINCUBATION
  mutagenic call: inactive; negative
Test System: AMES SALMONELLA TYPHIMURIUM, Strain/Indicator: YG1029, Metabolic Activation: TOBACCO CELL-FREE TXIMX, Method: PREINCUBATION
  mutagenic call: active; positive
Test System: AMES SALMONELLA TYPHIMURIUM, Strain/Indicator: YG1029, Metabolic Activation: TOBACCO TX1 CELLS, Method: PREINCUBATION
  mutagenic call: active; positive
Test System: Ames Salmonella typhimurium, Strain/Indicator: TA98, Metabolic Activation: Rat, Liver, S-9, Sodium phenobarbitone, Method: Preincubation
  mutagenic call: active; positive, test conducted under both aerobic and anaerobic conditions.
Test System: Ames Salmonella typhimurium, Strain/Indicator: TA102, Metabolic Activation: None, Method: Preincubation
  mutagenic call: inactive; negative
Test System: Ames Salmonella typhimurium, Strain/Indicator: TA102, Metabolic Activation: Rat, Liver, S-9, Aroclor 1254 in 0.154 M KCl, Method: Preincubation
  mutagenic call: active; positive (coumestrol, ellagic acid, (-) epicatechin, (-) epichatechingallate, ga
Test System: Ames Salmonella typhimurium, Strain/Indicator: TA102, Metabolic Activation: Rat, liver, S-9, Aroclor 1254, 4%, Method: Preincubation
  mutagenic call: active; positive
Test System: Ames Salmonella typhimurium, Strain/Indicator: TA1538, Metabolic Activation: Rat, Liver, S-9, Sodium phenobarbitone, Method: Preincubation
  mutagenic call: active; positive, test conducted under both aerobic and anaerobic conditions.
Test System: CHINESE HAMSTER OVARY, Strain/Indicator: CHO-K1-BH4 (HGPRT)/6-THIOGUANINE, Metabolic Activation: RAT, LIVER, S-9, Method: SUSPENSION/PLATE
  mutagenic call: inactive; negative
Test System: CHINESE HAMSTER OVARY, Strain/Indicator: CHO-K1-BH4 (HGPRT), Metabolic Activation: RAT, LIVER, S-9, AROCLOR, Method: SUSPENSION/PLATE
  mutagenic call: active; positive
Test System: CHINESE HAMSTER V-79, Strain/Indicator: V-79/6-THIOGUANINE, Metabolic Activation: MOUSE, LIVER, S-9, Method: SUSPENSION/PLATE
  mutagenic call: active; positive
Test System: CHINESE HAMSTER V-79, Strain/Indicator: V-79/6-THIOGUANINE, Metabolic Activation: NONE, Method: SUSPENSION/PLATE
  mutagenic call: inactive; negative
Test System: CHINESE HAMSTER V-79, Strain/Indicator: V-79/6-THIOGUANINE, Metabolic Activation: RAT, LIVER, S-9, AROCLOR 1254, Method: SUSPENSION/PLATE
  mutagenic call: inactive; negative
Test System: CHINESE HAMSTER V-79, Strain/Indicator: V-79/6-THIOGUANINE, Metabolic Activation: RAT, LIVER, S-9, PHENOBARBITAL AND BETA-NAPHTHOFLAVONE, Method: SUSPENSION/PLATE
  mutagenic call: inactive; negative
Test System: MOUSE LYMPHOMA, Strain/Indicator: L5178Y (HGPRT)/6-THIOGUANINE, Metabolic Activation: NONE, Method: SUSPENSION/PLATE
  mutagenic call: inactive; negative
Test System: MOUSE LYMPHOMA, Strain/Indicator: L5178Y (HGPRT)/6-THIOGUANINE, Metabolic Activation: RAT, LIVER, S-9, AROCLOR 1254, Method: SUSPENSION/PLATE
  mutagenic call: inactive; negative
Test System: MOUSE LYMPHOMA, Strain/Indicator: L5178Y (HPRT), Metabolic Activation: NONE, Method: SUSPENSION/PLATE
  mutagenic call: inactive; negative
Test System: MOUSE LYMPHOMA, Strain/Indicator: L5178Y (TK+/TK-)/TRIFLUOROTHYMIDINE, Metabolic Activation: NONE, Method: SUSPENSION/PLATE
  mutagenic call: active; positive
Test System: MOUSE LYMPHOMA, Strain/Indicator: L5178Y (TK+/TK-)/TRIFLUOROTHYMIDINE, Metabolic Activation: RAT, LIVER, S-9, AROCLOR 1254, Method: SUSPENSION/PLATE
  mutagenic call: active; positive
Test System: MOUSE LYMPHOMA, Strain/Indicator: L5178Y (TK+/TK-), Metabolic Activation: NONE, Method: SUSPENSION/PLATE
  mutagenic call: active; positive
Test System: MOUSE LYMPHOMA, Strain/Indicator: L5178Y (TK+/TK-), Metabolic Activation: RAT, LIVER, S-9, AROCLOR 1254, Method: SUSPENSION/PLATE
  mutagenic call: active; positive
Test System: MOUSE LYMPHOMA, Strain/Indicator: L5178Y (TK+/TK-), Metabolic Activation: S-9, Method: SUSPENSION/PLATE
  mutagenic call: active; positive
Test System: UDS RODENT HEPATOCYTES, Strain/Indicator: THY INCORP (NON-S-PHASE), Method: AUTORADIOGRAPHY
  mutagenic call: active; positive
